Laboratory results: US20250109118A1, “HETEROCYCLIC COMPOUNDS AS SHP2 INHIBITORS, COMPOSITIONS COMPRISING THE HETEROCYCLIC COMPOUND, AND METHODS OF USE THEREOF” (JS INNOMED HOLDINGS LTD., priority 2021, published 2025)

System: MiaPaCa-2 cells
Assay: MiaPaCa-2 Cell proliferation assay in 3D culture (CCK8)
Format: cell-based
Settings: Homo sapiens, MIA PaCa-2, 120 h; 3D spheroid culture, 5 days with compound, CCK8 readout
Procedure: MiaPaCa-2 Cell proliferation assay in 3D culture. To evaluate cell viability, MiaPaCa-2 cells in logarithmic growth phase were seeded at optimal density and grown in as spheroids. Cells were incubated for 24 hours prior to the addition of different concentrations of the compounds. Cells were cultured with the compounds for 5 days and the cell viability was assessed using CCK8. Briefly, 2500 cells were seeded in round bottom ultra-low attachment 96 well plates (coming) in growth media supplemented with 10% FBS and incubated at 37° C. for 24 hours. The compounds were dissolved in DMSO (Sigma) to obtain 10 mM stock solution. Then the compounds were serially diluted in 3-fold to ten concentrations; 5 μL of the dilution above was transferred to 95 uL culture media to obtain the 50× compound stock solution; 4 uL of the 50× compound above was then transferred to the wells containing cells with 196 μL of the culture medium to obtain the final 1× concentration. The final concentration of DMSO was 0.1%. Spheroid cells were incubated in compounds for 5 days. Then 20 μL WST-8 solution (DOJINDO, Cell Counting KIT-8) was added to each well. The plates were further incubated at 37° C. for 1.5 hours, and then absorbance at 450 nm was measured using a microplate reader. Each compound was tested in triplicate and the IC50 value was calculated using GraphPad Prism.
The IC50 values of for Compounds disclosed are listed in Table 2, A: ≤500 nM; B: >500 nM and ≤5 μM; C: >5 μM and ≤50 μM; and D: >50 μM.

Structure (SMILES) | IC50
CC1(CN)CCN(c2cnc(Sc3cccc(NC(=O)NS(=O)(=O)c4ccccn4)c3Cl)c(N)n2)CC1 [Example 45, N-((3-((3-amino-5-(4-(aminomethyl)-4-methylpiperidin-1-yl)pyrazin-2-yl)thio)-2-chlorophenyl)carbamoyl)pyridine-2-sulfonamide] | ≤ 500 nM
CC1(CN)CCN(c2cnc(Sc3cccc(NC(=O)NS(=O)(=O)c4cccnc4)c3Cl)c(N)n2)CC1 [Example 46, N-((3-((3-amino-5-(4-(aminomethyl)-4-methylpiperidin-1-yl)pyrazin-2-yl)thio)-2-chlorophenyl)carbamoyl)pyridine-3-sulfonamide] | ≤ 500 nM
CC1(CN)CCN(c2cnc(Sc3cccc(NC(=O)NS(=O)(=O)c4ccccc4F)c3Cl)c(N)n2)CC1 [Example 47, N-((3-((3-amino-5-(4-(aminomethyl)-4-methylpiperidin-1-yl)pyrazin-2-yl)thio)-2-chlorophenyl)carbamoyl)-2-fluorobenzenesulfonamide] | 500 to 5000 nM
CC1(CN)CCN(c2cnc(Sc3ccnc(NC(=O)NS(=O)(=O)c4ccccc4)c3Cl)cn2)CC1 [Example 48, N-((4-((5-(4-(aminomethyl)-4-methylpiperidin-1-yl)pyrazin-2-yl)thio)-3-chloropyridin-2-yl)carbamoyl)benzenesulfonamide] | ≤ 500 nM
C[C@@H]1OCC2(CCN(c3cnc(Sc4cccc(NC(=O)NS(=O)(=O)c5ccccc5)c4Cl)cn3)CC2)[C@@H]1N [Example 49, N-((3-((5-((3S,4S)-4-amino-3-methyl-2-oxa-8-azaspiro[4.5]decan-8-yl)pyrazin-2-yl)thio)-2-chlorophenyl)carbamoyl)benzenesulfonamide] | ≤ 500 nM
C[C@@H]1OCC2(CCN(c3cnc(Sc4ccnc(NC(=O)NS(=O)(=O)c5cccc(F)c5)c4Cl)cn3)CC2)[C@@H]1N [Example 50, N-((4-((5-((3S,4S)-4-amino-3-methyl-2-oxa-8-azaspiro[4.5]decan-8-yl)pyrazin-2-yl)thio)-3-chloropyridin-2-yl)carbamoyl)-3-fluorobenzenesulfonamide] | ≤ 500 nM
C[C@@H]1OCC2(CCN(c3cnc(Sc4ccnc(NC(=O)NS(=O)(=O)c5cccnc5)c4Cl)cn3)CC2)[C@@H]1N [Example 51, N-((4-((5-((3S,4S)-4-amino-3-methyl-2-oxa-8-azaspiro[4.5]decan-8-yl)pyrazin-2-yl)thio)-3-chloropyridin-2-yl)carbamoyl)pyridine-3-sulfonamide] | 500 to 5000 nM
C[C@@H]1OCC2(CCN(c3cnc(Sc4ccnc(NC(=O)NS(=O)(=O)c5ccccc5F)c4Cl)cn3)CC2)[C@@H]1N [Example 52, N-((4-((5-((3S,4S)-4-amino-3-methyl-2-oxa-8-azaspiro[4.5]decan-8-yl)pyrazin-2-yl)thio)-3-chloropyridin-2-yl)carbamoyl)-2-fluorobenzenesulfonamide] | ≤ 500 nM
C[C@@H]1OCC2(CCN(c3cnc(Sc4ccnc(NC(=O)NS(=O)(=O)c5ccc(F)cc5)c4Cl)cn3)CC2)[C@@H]1N [Example 53, N-((4-((5-((3S,4S)-4-amino-3-methyl-2-oxa-8-azaspiro[4.5]decan-8-yl)pyrazin-2-yl)thio)-3-chloropyridin-2-yl)carbamoyl)-4-fluorobenzenesulfonamide] | ≤ 500 nM
COc1ccc(S(=O)(=O)NC(=O)Nc2nccc(Sc3cnc(N4CCC5(CC4)CO[C@@H](C)[C@H]5N)cn3)c2Cl)cn1 [Example 54, N-((4-((5-((3S,4S)-4-amino-3-methyl-2-oxa-8-azaspiro[4.5]decan-8-yl)pyrazin-2-yl)thio)-3-chloropyridin-2-yl)carbamoyl)-6-methoxypyridine-3-sulfonamide] | ≤ 500 nM
C[C@@H]1OCC2(CCN(c3cnc(Sc4ccnc(NC(=O)NS(=O)(=O)c5cnn(C)c5)c4Cl)cn3)CC2)[C@@H]1N [Example 55, N-((4-((5-((3S,4S)-4-amino-3-methyl-2-oxa-8-azaspiro[4.5]decan-8-yl)pyrazin-2-yl)thio)-3-chloropyridin-2-yl)carbamoyl)-1-methyl-1H-pyrazole-4-sulfonamide] | ≤ 500 nM
C[C@@H]1OCC2(CCN(c3cnc(Sc4ccnc(NC(=O)NS(=O)(=O)c5ccccc5)c4F)cn3)CC2)[C@@H]1N [Example 56, N-((4-((5-((3S,4S)-4-amino-3-methyl-2-oxa-8-azaspiro[4.5]decan-8-yl)pyrazin-2-yl)thio)-3-fluoropyridin-2-yl)carbamoyl)benzenesulfonamide] | ≤ 500 nM
C[C@@H]1OCC2(CCN(c3cnc(Sc4ccnc(NC(=O)NS(=O)(=O)C5CC5)c4Cl)cn3)CC2)[C@@H]1N [Example 57, N-((4-((5-((3S,4S)-4-amino-3-methyl-2-oxa-8-azaspiro[4.5]decan-8-yl)pyrazin-2-yl)thio)-3-chloropyridin-2-yl)carbamoyl)cyclopropanesulfonamide] | ≤ 500 nM
C[C@@H]1OCC2(CCN(c3cnc(Sc4ccnc(NC(=O)NS(=O)(=O)c5cncc(F)c5)c4Cl)cn3)CC2)[C@@H]1N [Example 58, N-((4-((5-((3S,4S)-4-amino-3-methyl-2-oxa-8-azaspiro[4.5]decan-8-yl)pyrazin-2-yl)thio)-3-chloropyridin-2-yl)carbamoyl)-5-fluoropyridine-3-sulfonamide] | ≤ 500 nM
Cc1nc(N2CCC3(CC2)CO[C@@H](C)[C@H]3N)c(CO)nc1Sc1ccnc(NC(=O)NS(=O)(=O)c2ccccc2)c1Cl [Example 59, N-((4-((5-((3S,4S)-4-amino-3-methyl-2-oxa-8-azaspiro[4.5]decan-8-yl)-6-(hydroxymethyl)-3-methylpyrazin-2-yl)thio)-3-chloropyridin-2-yl)carbamoyl)benzenesulfonamide] | ≤ 500 nM
C[C@@H]1OCC2(CCN(c3cnc(Sc4cncc(NC(=O)NS(=O)(=O)c5ccccc5)c4Cl)cn3)CC2)[C@@H]1N [Example 60, N-((5-((5-((3S,4S)-4-amino-3-methyl-2-oxa-8-azaspiro[4.5]decan-8-yl)pyrazin-2-yl)thio)-4-chloropyridin-3-yl)carbamoyl)benzenesulfonamide] | 500 to 5000 nM
C[C@@H]1OCC2(CCN(c3cnc(Sc4cccc(NC(=O)NS(=O)(=O)c5cccnc5)c4Cl)cn3)CC2)[C@@H]1N [Example 61, N-((3-((5-((3S,4S)-4-amino-3-methyl-2-oxa-8-azaspiro[4.5]decan-8-yl)pyrazin-2-yl)thio)-2-chlorophenyl)carbamoyl)pyridine-3-sulfonamide] | ≤ 500 nM
C[C@@H]1OCC2(CCN(c3cnc(Sc4cccc(NC(=O)NS(=O)(=O)c5cccc(F)c5)c4Cl)cn3)CC2)[C@@H]1N [Example 62, N-((3-((5-((3S,4S)-4-amino-3-methyl-2-oxa-8-azaspiro[4.5]decan-8-yl)pyrazin-2-yl)thio)-2-chlorophenyl)carbamoyl)-3-fluorobenzenesulfonamide] | ≤ 500 nM
C[C@@H]1OCC2(CCN(c3cnc(Sc4cccc(NC(=O)NS(=O)(=O)c5ccccn5)c4Cl)cn3)CC2)[C@@H]1N [Example 63, N-((3-((5-((3S,4S)-4-amino-3-methyl-2-oxa-8-azaspiro[4.5]decan-8-yl)pyrazin-2-yl)thio)-2-chlorophenyl)carbamoyl)pyridine-2-sulfonamide] | ≤ 500 nM
COc1ccc(S(=O)(=O)NC(=O)Nc2cccc(Sc3cnc(N4CCC5(CC4)CO[C@@H](C)[C@H]5N)cn3)c2Cl)cn1 [Example 64, N-((3-((5-((3S,4S)-4-amino-3-methyl-2-oxa-8-azaspiro[4.5]decan-8-yl)pyrazin-2-yl)thio)-2-chlorophenyl)carbamoyl)-6-methoxypyridine-3-sulfonamide] | ≤ 500 nM
Cc1noc(C)c1S(=O)(=O)NC(=O)Nc1cccc(Sc2cnc(N3CCC4(CC3)CO[C@@H](C)[C@H]4N)cn2)c1Cl [Example 65, N-((3-((5-((3S,4S)-4-amino-3-methyl-2-oxa-8-azaspiro[4.5]decan-8-yl)pyrazin-2-yl)thio)-2-chlorophenyl)carbamoyl)-3,5-dimethylisoxazole-4-sulfonamide] | ≤ 500 nM
C[C@@H]1OCC2(CCN(c3cnc(Sc4cccc(NC(=O)NS(=O)(=O)C5CC5)c4Cl)cn3)CC2)[C@@H]1N [Example 66, N-((3-((5-((3S,4S)-4-amino-3-methyl-2-oxa-8-azaspiro[4.5]decan-8-yl)pyrazin-2-yl)thio)-2-chlorophenyl)carbamoyl)cyclopropanesulfonamide] | ≤ 500 nM
N[C@@H]1c2cnccc2CC12CCN(c1cnc(Sc3cccc(NC(=O)NS(=O)(=O)c4ccccc4)c3Cl)cn1)CC2 [Example 67, (S)—N-((3-((5-(7-amino-5,7-dihydrospiro[cyclopenta[c]pyridine-6,4′-piperidin]-1′-yl)pyrazin-2-yl)thio)-2-chlorophenyl)carbamoyl)benzenesulfonamide] | ≤ 500 nM
C[C@@H]1OCC2(CCN(c3cnc(Sc4cccc(NC(=O)NS(=O)(=O)C5CCOCC5)c4Cl)cn3)CC2)[C@@H]1N [Example 68, N-((3-((5-((3S,4S)-4-amino-3-methyl-2-oxa-8-azaspiro[4.5]decan-8-yl)pyrazin-2-yl)thio)-2-chlorophenyl)carbamoyl)tetrahydro-2H-pyran-4-sulfonamide] | ≤ 500 nM
C[C@@H]1OCC2(CCN(c3cnc(Sc4cccc(NC(=O)NS(=O)(=O)C5CCCCC5)c4Cl)cn3)CC2)[C@@H]1N [Example 69, N-((3-((5-((3S,4S)-4-amino-3-methyl-2-oxa-8-azaspiro[4.5]decan-8-yl)pyrazin-2-yl)thio)-2-chlorophenyl)carbamoyl)cyclohexanesulfonamide] | ≤ 500 nM
